Consider two compounds from patent US5281717A, “Epoxysuccinamic acid derivatives” (Taisho Pharmaceutical Co., Ltd., priority 1990, dated 1994).

Read-outs that look alike come from different tables or passages of the source.

Holding throughout (assay type): biochemical
Assay [1] concerns the target T1, papain (Carica papaya, UniProt P00784).
T1 construct: purchased Sigma Chemical Co
T1 sequence (P00784 134-345): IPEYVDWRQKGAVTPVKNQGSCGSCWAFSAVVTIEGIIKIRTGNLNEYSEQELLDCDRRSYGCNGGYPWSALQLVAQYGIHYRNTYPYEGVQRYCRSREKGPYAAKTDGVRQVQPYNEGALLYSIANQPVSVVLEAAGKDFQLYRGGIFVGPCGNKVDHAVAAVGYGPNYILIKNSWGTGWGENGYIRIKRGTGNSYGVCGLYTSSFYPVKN
Kind of assay: Inhibitory Activity Against Papain. The method, then:
(§1) The inhibitory activities against papain, CANP and cathepsin B were measured according to the following methods, and results are shown in Table 1.
The measurement was carried out according to the method of A. J. Barrett et al [Biochem. J., vol. 201, p. 189 (1982)].
To each of 0.95 ml of the reaction solutions containing 2.5 mM 2-mercaptoethanol, 1 mM disodium ethylenediaminetetraacetate, 0.1 M sodium potassium phosphate buffer (pH 6.8), 0.1% Brij-35 (produced by Nacalai Tesque Inc.), 1% dimethyl sulfoxide and various concentrations of the test drug was added 25 μl of a papain solution (produced by Sigma Chemical Co.), and the mixture was preincubated at 40° C. for 3 minutes, after which 25 μl of 200 μM benzyloxycarbonyl-L-phenylalanyl-L-arginine 4-methylcoumaryl-7-amide (produced by Peptide Institute Inc.) was added for starting the reaction After incubation at 40° C. for 10 minutes, the reaction was stopped by addition of 1 ml of 100 mM sodium acetate buffer solution (pH 4.3) containing 100 mM sodium chloroacetate. The fluorescence of the liberated 7-amino-4-methylcoumarine was determined using a Shimazu fluorometer RF-5000 with excitation at 380 nm and emission measured at 440 nm. […]

Assay [2] deals with T2, μ CANP (Calpain I) (Homo sapiens, UniProt P07384).
T2 construct: purchased Nacalai Tesque Inc
T2 sequence (P07384 2-714 limits assumed): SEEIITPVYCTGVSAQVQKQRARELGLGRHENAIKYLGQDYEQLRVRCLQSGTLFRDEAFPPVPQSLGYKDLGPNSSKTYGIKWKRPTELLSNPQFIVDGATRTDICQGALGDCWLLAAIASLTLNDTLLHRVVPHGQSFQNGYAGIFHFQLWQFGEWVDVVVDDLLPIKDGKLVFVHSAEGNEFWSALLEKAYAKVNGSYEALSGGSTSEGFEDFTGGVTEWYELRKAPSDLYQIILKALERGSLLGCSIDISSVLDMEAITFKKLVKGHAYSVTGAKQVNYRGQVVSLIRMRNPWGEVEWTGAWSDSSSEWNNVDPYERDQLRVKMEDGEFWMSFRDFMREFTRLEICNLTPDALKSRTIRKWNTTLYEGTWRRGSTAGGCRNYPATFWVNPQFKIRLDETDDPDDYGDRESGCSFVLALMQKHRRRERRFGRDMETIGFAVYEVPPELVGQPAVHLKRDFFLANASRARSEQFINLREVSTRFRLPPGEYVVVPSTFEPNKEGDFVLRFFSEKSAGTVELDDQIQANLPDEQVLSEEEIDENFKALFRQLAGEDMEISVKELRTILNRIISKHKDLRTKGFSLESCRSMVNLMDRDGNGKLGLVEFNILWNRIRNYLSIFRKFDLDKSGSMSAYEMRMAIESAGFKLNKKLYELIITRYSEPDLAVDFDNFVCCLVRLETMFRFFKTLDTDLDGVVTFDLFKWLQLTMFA
T2 sequence (P04632 1-268 partner): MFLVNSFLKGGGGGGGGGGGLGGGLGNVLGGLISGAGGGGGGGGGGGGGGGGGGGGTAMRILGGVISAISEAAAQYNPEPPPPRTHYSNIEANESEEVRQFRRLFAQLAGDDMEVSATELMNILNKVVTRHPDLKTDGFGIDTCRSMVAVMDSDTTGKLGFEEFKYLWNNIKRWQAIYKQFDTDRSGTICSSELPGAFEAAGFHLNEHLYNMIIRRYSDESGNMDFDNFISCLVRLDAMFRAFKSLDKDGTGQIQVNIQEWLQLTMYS
The experiment in a line: Inhibitory Activity Against CANP. The following applies: pH 7.5, 30° C., preincubated 5 minutes, incubation 20 minutes, alkali-denatured casein. The method, then:
as §1
The measurement was carried out according to the method of S. Ishiura et al (J. Biochem., vol. 84, p. 225 (1978)].
Each of 0.45 ml of the reaction solutions containing 25 mM 2-mercaptoethanol, 5 mM calcium chloride, 0.1 M sodium glycerophosphate-HCl buffer (pH 7.5), 0.24% alkali-denatured casein, 1% dimethylsulfoxide and various concentrations of the test drug was preincubated accurately at 30° C. for 5 minutes, and 50 μl of a solution containing 5 μg of μ CANP (Calpain I, produced by Nacalai Tesque Inc.) was added for starting the reaction. After exact incubation at 30° C. for 20 minutes, the reaction was stopped by addition of 0.5 ml of 10% trichloroacetic acid. After being allowed to stand at room temperature for 60 minutes, the mixture was centrifuged at 3000 × g for 5 minutes, and the absorbance at 280 nm of the supernatant was determined. The remaining activity was obtained by reducing the blank value which was obtained in a similar manner to the above but adding 10% trichloroacetic acid prior to addition of μ CANP from the above value. […]

For assay [3], the target named is T3, cathepsin B (Homo sapiens, UniProt P07858).
T3 construct: purchased Sigma Chemical Co
Kind of assay: Inhibitory Activity against Cathepsin B. The note with it: pH 6.0, 40° C., preincubated 3 minutes, incubation 10 minutes, substrate benzyloxycarbonyl-L-phenylalanyl-L-arginine 4-methylcoumaryl-7-amide.
Procedure: To each of 0.95 ml of the reaction solutions containing 2.5 mM 2-mercaptoethanol, 1 mM disodium ethylenediaminetetraacetate, 0.1 M sodium potassium phosphate buffer (pH 6.0), 0.1% Brij-35 (produced by Nacalai Tesque Inc.), 1% dimethyl sulfoxide and various concentrations of the test drug was added 25 μl of 200 nM cathepsin B solution (produced by Sigma Chemical Co.), and the mixture was preincubated at 40° C. for 3 minutes, after which 25 μl of 200 μM benzyloxycarbonyl-L-phenylalanyl-L-arginine 4-methylcoumaryl-7-amide (produced by Peptide Institute Inc.) was added for starting the reaction After incubation at 40° C. for 10 minutes, the reaction was stopped by addition of 1 ml of 100 mM sodium acetate buffer (pH 4.3) containing 100 nM sodium chloroacetate. The fluorescence of the liberated 7-amino-4-methyl-coumarine was determined using a Shimazu fluorometer RP-5000 with excitation at 380 nm and emission measured at 440 nm.

A word on the IC50: it is the concentration at which inhibition is half-maximal.

For the compound `CCCNC(=O)[C@H]1O[C@@H]1C(=O)N[C@H](C(=O)N1CCC[C@H]1C(=O)O)[C@@H](C)CC` [Compound 1d, N-(L-3-trans-n-propylcarbamoyloxirane-2-carbonyl)-L-isoleucyl-L-proline], the IC50 in assay [1] (pH 6.8, 40° C., preincubated 3 minutes, incubation 10 minutes, substrate benzyloxycarbonyl-L-phenylalanyl-L-arginine 4-methylcoumaryl-7-amide, read-out: Inhibitory Activity Value [IC50 (nM)] Papain) is 57400 nM; in assay [2], over 200000 nM.
`CCCCCNC(=O)[C@H]1O[C@@H]1C(=O)N[C@H](C(=O)N1CCC[C@H]1C(=O)O)[C@@H](C)CC` [Compound 8d]: the values for the IC50 in assay [1], in assay [3] and in assay [2] were 26000 nM, 32 nM and over 200000 nM, respectively.
